Results taken from patent US20200031811A1, “SUBSTITUTED MONO- AND POLYAZANAPHTHALENE DERIVATIVES AND THEIR USE” (Basilea Pharmaceutica International AG, priority 2015, published 2020).

Experiments:
MNK1 = target: T1, MNK1 (Homo sapiens, UniProt Q9BUB5); assay: MNK inhibition assay (Z-Lyte kinase assay, Ser/Thr 7 peptide); assay type: biochemical; conditions: for IC50: recombinant GST-MNK1, 3 hours at 31° C.; for inhibition at 1 µM: read-out: Inhibition of MNK1 activity at indicated concentration
T1 construct: purchased Life Technologies or Carna Biosciences PV6023 or 02-145; host or cells: baculovirus infected insect cells
How it was run: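 Recombinant GST-MNK1 from baculovirus-infected insect cells, Z-Lyte Ser/Thr 7 peptide, enzyme set for ~30% phosphorylation in buffer-only wells; 3 hours at 31° C. Compounds at 50–10000 nM (potent ones down to 0.5 nM), at least duplicate. IC50 from % substrate phosphorylation versus buffer-only wells, fluorescence read-out.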

[1] = tested on: human pancreatic cancer cell line MiaPaCa2 (ATCC CRL-1420); assay: Cell growth assay (CellTiterGlo, 72 hours); assay type: cell-based; conditions: MIA PaCa-2, MiaPaCa2 cells, 72 hours, read-out: IC50 MiaPaCa
How it was run: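 MiaPaCa2 cells (10^3/well) seeded in supplemented DMEM overnight, then exposed in quadruplicate to compound at 100 down to 0.1 μM for 72 h at 37° C. Growth read by CellTiterGlo luminescence, medium-only background subtracted, normalised to untreated cells; IC50 = concentration reducing growth to 50%.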

T1 sequence (Q9BUB5 whole entry): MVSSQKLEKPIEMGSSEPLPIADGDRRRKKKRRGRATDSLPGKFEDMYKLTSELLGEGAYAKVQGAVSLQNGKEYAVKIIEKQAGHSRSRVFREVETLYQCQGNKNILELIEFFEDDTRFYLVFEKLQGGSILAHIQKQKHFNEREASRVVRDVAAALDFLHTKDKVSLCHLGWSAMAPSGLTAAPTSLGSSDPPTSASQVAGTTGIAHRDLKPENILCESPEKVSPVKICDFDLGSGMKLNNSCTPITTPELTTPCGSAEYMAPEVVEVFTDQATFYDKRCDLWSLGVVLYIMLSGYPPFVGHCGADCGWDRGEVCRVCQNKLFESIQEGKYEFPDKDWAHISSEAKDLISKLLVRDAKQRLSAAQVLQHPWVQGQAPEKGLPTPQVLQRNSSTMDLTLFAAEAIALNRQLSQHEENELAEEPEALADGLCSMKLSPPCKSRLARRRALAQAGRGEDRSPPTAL

SMILES	IC50 (MNK1) [nM]	IC50 [1] [nM]	inhibition at 1 µM (MNK1) [%]
NC1CCN(Cc2ccc3nncc(-c4ccc(Cl)cc4)c3c2)CC1 [Example 145, 1-[[4-(4-Chlorophenyl)cinnolin-6-yl]methyl]piperidin-4-amine]	2720	29000	
c1ccc2oc(-c3cncc4ccc(OCc5ccncc5)cc34)cc2c1 [Example 146, 4-(Benzofuran-2-yl)-6-(4-pyridylmethoxy)isoquinoline]	268	20000	
c1ccc2oc(-c3cncc4ccc(NCc5ccncc5)cc34)cc2c1 [Example 147, 4-(Benzofuran-2-yl)-N-(4-pyridylmethyl)isoquinolin-6-amine]	92	7140	
N[C@H]1CC[C@H](C(=O)Nc2ccc3cncc(-c4cc5ccccc5o4)c3c2)CC1 [Example 156, trans-4-Amino-N-[4-(benzofuran-2-yl)-6-isoquinolyl]cyclohexanecarboxamide]	371	10400	
N[C@H]1CC[C@@H](C(=O)Nc2ccc3cncc(-c4cc5ccccc5o4)c3c2)CC1 [Example 157]	50	7880	
N[C@H]1CC[C@H](NC(=O)c2ccc3cncc(-c4cc5ccccc5o4)c3c2)CC1 [Example 160, Trans-N-(4-aminocyclohexyl)-4-(benzofuran-2-yl)isoquinoline-6-carboxamide]	284	12200	
N[C@H]1CC[C@@H](NC(=O)c2ccc3cncc(-c4cc5ccccc5o4)c3c2)CC1 [Example 161]	465	24000	
Nc1ncc2ccc(CN3CCC(N)CC3)cc2c1-c1ccccc1 [Example 162, 6-[(4-Amino-1-piperidyl)methyl]-4-phenyl-isoquinolin-3-amine]		9880	54
Nc1ncc2ccc(CN3CCC(N)CC3)cc2c1-c1ccc(O)cc1 [Example 163]	142	13800	
Nc1ncc2ccc(CN3CCC(N)CC3)cc2c1-c1cc2ccccc2o1 [Example 164, 6-[(4-Amino-1-piperidyl)methyl]-4-(benzofuran-2-yl)isoquinolin-3-amine]	847	6620	
Nc1ncc2ccc(CNc3ccncc3)cc2c1-c1cc2ccccc2o1 [Example 165, 4-(Benzofuran-2-yl)-6-[(4-pyridylamino)methyl]isoquinolin-3-amine]	6	5700	
NC1CCN(Cc2ccc3cncc(-c4ccc5[nH]ccc5c4)c3c2)CC1 [Example 168]	760	12400	
NC1CCN(Cc2ccc3cncc(-c4ccc5cc[nH]c5c4)c3c2)CC1 [Example 169]	247	10300	
NC1CCN(Cc2ccc3cncc(-c4ccc(Cl)s4)c3c2)CC1 [Example 171]	189	11200	
NC1CCN(Cc2ccc3cncc(-c4ccc5occc5c4)c3c2)CC1 [Example 172]	270	11900	
NC1CCN(Cc2ccc3cncc(-c4cnc5ccccc5c4)c3c2)CC1 [Example 173]	958	9870	
COc1ccc2oc(-c3cncc4ccc(CN5CCC(N)CC5)cc34)cc2c1 [Example 175]	1070	7720	
NC1CCN(Cc2ccc3cncc(-c4ccc5ccccc5n4)c3c2)CC1 [Example 176, 1-[[4-(2-Quinolyl)-6-isoquinolyl]methyl]piperidin-4-amine]	3700	29000	
NC1CCN(Cc2ccc3cncc(-c4cccs4)c3c2)CC1 [Example 178]	154	4980	
NC1CCN(Cc2ccc3cncc(-c4ccoc4)c3c2)CC1 [Example 179]	276	4970	
NC1CCN(Cc2ccc3cncc(-c4ccsc4)c3c2)CC1 [Example 180]	177	12100	
NC1CCN(Cc2ccc3cncc(-c4ccc(CO)cc4)c3c2)CC1 [Example 181]	522	22800	
NC1CCN(Cc2ccc3cncc(-c4cccc(CO)c4)c3c2)CC1 [Example 182]	1180	38000	
NCc1ccc(-c2cncc3ccc(CN4CCC(N)CC4)cc23)cc1 [Example 183]	306	8640	
NCc1cccc(-c2cncc3ccc(CN4CCC(N)CC4)cc23)c1 [Example 184]		7890	35
CC(=O)c1ccc(-c2cncc3ccc(CN4CCC(N)CC4)cc23)cc1 [Example 185]	849	22000	

The next molecules have a lower IC50 [1] than those just listed; values first:

IC50 (MNK1) [nM]	IC50 [1] [nM]	inhibition at 1 µM (MNK1) [%]	SMILES
465	4700		NC1CCN(Cc2ccc3cncc(-c4ccc5ccccc5c4)c3c2)CC1 [Example 174]
1890	4610		NC1CCN(Cc2ccc3nncc(-c4cc5ccccc5o4)c3c2)CC1 [Example 144, 1-[[4-(Benzofuran-2-yl)cinnolin-6-yl]methyl]piperidin-4-amine]
180	3790		N[C@H]1CC[C@H](Nc2cc(Cl)c3cncc(-c4cc5ccccc5o4)c3c2)CC1 [Example 142, N4-[4-(Benzofuran-2-yl)-8-chloro-6-isoquinolyl]cyclohexane-1,4-diamine]
125	3650		NC1CCN(Cc2ccc3cncc(-c4ccco4)c3c2)CC1 [Example 177, 1-[[4-(2-Furyl)-6-isoquinolyl]methyl]piperidin-4-amine]
131	3500		Nc1ncc(-c2cc3ccccc3o2)c2cc(CN3CCC(N)CC3)ccc12 [Example 153, 6-[(4-Amino-1-piperidyl)methyl]-4-(benzofuran-2-yl)isoquinolin-1-amine]
361	2600		NC1CCN(Cc2ccc3cncc(-c4cc5ccccc5s4)c3c2)CC1 [Example 170]
11	2510		Nc1ncc(-c2cc3ccccc3o2)c2cc(CNc3ccncc3)ccc12 [Example 151, 4-(Benzofuran-2-yl)-6-[(4-pyridylamino)methyl]isoquinolin-1-amine]
187	2260		COc1cc2cncc(-c3cc4ccccc4o3)c2cc1N[C@H]1CC[C@H](N)CC1 [Example 141, N4-[4-(Benzofuran-2-yl)-7-methoxy-6-isoquinolyl]cyclohexane-1,4-diamine]
474	1960		COc1cc(N[C@H]2CC[C@H](N)CC2)cc2c(-c3cc4ccccc4o3)cncc12 [Example 143, N4-[4-(benzofuran-2-yl)-8-methoxy-6-isoquinolyl]cyclohexane-1,4-diamine]
10	1870		N[C@H]1CC[C@H](Nc2cc3c(-c4cc5ccccc5o4)cncc3cc2Cl)CC1 [Example 140, N4-[4-(Benzofuran-2-yl)-7-chloro-6-isoquinolyl]cyclohexane-1,4-diamine]
58	1740		N[C@H]1CC[C@H](Nc2ccc3cncc(-c4cc5ccccc5o4)c3c2)CC1 [Example 148, 4-(Benzofuran-2-yl)-N-(4-(trans)aminocyclohexyl)isoquinolin-6-amine]
17	1560		Nc1cc[n+](Cc2ccc3c(N)ncc(-c4cc5ccccc5o4)c3c2)cc1 [Example 152, 6-[(4-Aminopyridin-1-ium-1-yl)methyl]-4-(benzofuran-2-yl)isoquinolin-1-amine]
1040	800		Cc1ccc(-c2cncc3ccc(CN4CCC(N)CC4)cc23)o1 [Example 167, 1-[[4-(5-methyl-2-furyl)-6-isoquinolyl]methyl]piperidin-4-amine]
